Results from PubChem BioAssay AID248 (DTP/NCI, 2004).
Inconclusive results and toxic doses are left out.

Tested on: L1210 leukemia ip in BDF1 mice, survival T/C
Experiment: NCI In Vivo Anticancer Drug Screen. Data for tumor model L1210 Leukemia (intraperitoneal) in B6D2F1 (BDF1) mice
Details: endpoint: mean survival time, higher = longer survival
Procedure, shortened: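 Survival endpoint. Drug-treated group vs vehicle group, expressed as T divided by C. Tumor passaged by transplantation.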

[1] = dose: 100.0 mg/kg/injection, schedule: Q04DX003 (ip), vehicle: saline
[2] = dose: 200.0 mg/kg/injection, schedule: Q04DX003 (ip), vehicle: saline
[3] = dose: 400.0 mg/kg/injection, schedule: Q04DX003 (ip), vehicle: saline
[4] = dose: 100.0 mg/kg/injection, schedule: Q04DX002 (ip), vehicle: Klucel (hydroxypropylcellulose) (HPC)
[5] = dose: 200.0 mg/kg/injection, schedule: Q04DX002 (ip), vehicle: Klucel (hydroxypropylcellulose) (HPC)
[6] = dose: 100.0 mg/kg/injection, schedule: Q01DX001 (ip), vehicle: saline with Tween-80
[7] = dose: 50.0 mg/kg/injection, schedule: Q01DX001 (ip), vehicle: Klucel (hydroxypropylcellulose) (HPC)
[8] = dose: 100.0 mg/kg/injection, schedule: Q01DX009 (ip), vehicle: saline with Tween-80
[9] = dose: 100.0 mg/kg/injection, schedule: Q04DX003 (ip), vehicle: saline with Tween-80
[10] = dose: 200.0 mg/kg/injection, schedule: Q01DX009 (ip), vehicle: saline with Tween-80
[11] = dose: 200.0 mg/kg/injection, schedule: Q04DX003 (ip), vehicle: saline with Tween-80
[12] = dose: 100.0 mg/kg/injection, schedule: Q04DX003 (ip), vehicle: other
[13] = dose: 200.0 mg/kg/injection, schedule: Q04DX003 (ip), vehicle: other
[14] = dose: 400.0 mg/kg/injection, schedule: Q04DX003 (ip), vehicle: other
[15] = dose: 200.0 mg/kg/injection, schedule: Q01DX001 (ip), vehicle: Klucel (hydroxypropylcellulose) (HPC)
[16] = dose: 100.0 mg/kg/injection, schedule: Q04DX003 (ip), vehicle: acetone
[17] = dose: 200.0 mg/kg/injection, schedule: Q04DX003 (ip), vehicle: acetone
[18] = dose: 400.0 mg/kg/injection, schedule: Q01DX009 (ip), vehicle: saline with Tween-80
[19] = dose: 100.0 mg/kg/injection, schedule: Q01DX001 (ip), vehicle: Klucel (hydroxypropylcellulose) (HPC)
[20] = dose: 100.0 mg/kg/injection, schedule: Q01DX001 (ip), vehicle: saline
[21] = dose: 200.0 mg/kg/injection, schedule: Q01DX001 (ip), vehicle: saline
[22] = dose: 400.0 mg/kg/injection, schedule: Q01DX001 (ip), vehicle: saline

O=C(Cl)OCCOCCOC(=O)Cl
T/C [1]: 86 % of control
T/C (dose: 200.0 mg/kg/injection, schedule: Q01DX009 (ip), vehicle: saline): 89 % of control
T/C [2]: 94 % of control
T/C (dose: 400.0 mg/kg/injection, schedule: Q01DX009 (ip), vehicle: saline): 90 % of control
T/C [3]: 92 % of control

O=C(O)c1ccccc1N=Cc1ccc[nH]1
T/C [4]: 115 % of control
T/C [5]: 100 % of control
T/C (dose: 400.0 mg/kg/injection, schedule: Q04DX002 (ip), vehicle: Klucel (hydroxypropylcellulose) (HPC)): 96 % of control

CC(=O)C(C(=O)c1ccccc1)c1cc(NS(=O)(=O)N(C)C)ccc1NS(=O)(=O)N(C)C (stereo not drawn)
T/C (dose: 25.0 mg/kg/injection, schedule: Q01DX001 (ip), vehicle: saline with Tween-80): 98 % of control
T/C (dose: 50.0 mg/kg/injection, schedule: Q01DX001 (ip), vehicle: saline with Tween-80): 93 % of control
T/C [6]: 100 % of control

C[N+](C)(CC(=O)Nc1ccc(Oc2ccc(Cl)cc2)cc1)Cc1ccccc1
T/C (dose: 12.5 mg/kg/injection, schedule: Q01DX001 (ip), vehicle: Klucel (hydroxypropylcellulose) (HPC)): 104 % of control
T/C (dose: 12.5 mg/kg/injection, schedule: Q01DX009 (ip), vehicle: Klucel (hydroxypropylcellulose) (HPC)): 91 % of control
T/C (dose: 25.0 mg/kg/injection, schedule: Q01DX001 (ip), vehicle: Klucel (hydroxypropylcellulose) (HPC)): 101 % of control
T/C (dose: 25.0 mg/kg/injection, schedule: Q01DX009 (ip), vehicle: Klucel (hydroxypropylcellulose) (HPC)): 88 % of control
T/C [7]: 93 % of control

CCCCCCCCCCCCOc1ccccc1
T/C (dose: 50.0 mg/kg/injection, schedule: Q01DX009 (ip), vehicle: saline with Tween-80): 97 % of control
T/C [8]: 92 % of control
T/C [9]: 88 % of control
T/C [10]: 109 % of control
T/C [11]: 92 % of control

Cc1ccc(N=Nc2c(O)ccc3ccccc23)c([N+](=O)[O-])c1
T/C (dose: 100.0 mg/kg/injection, schedule: Q01DX001 (ip), vehicle: other): 96 % of control
T/C [12]: 95 % of control
T/C (dose: 200.0 mg/kg/injection, schedule: Q01DX001 (ip), vehicle: other): 95 % of control
T/C [13]: 91 % of control
T/C (dose: 400.0 mg/kg/injection, schedule: Q01DX001 (ip), vehicle: other): 96 % of control
T/C [14]: 93 % of control

Cc1ccc(Nc2nc(N)nc(N)c2N=O)cc1C
T/C (dose: 100.0 mg/kg/injection, schedule: Q01DX Z (ip), vehicle: methylcellulose (MC)): 116 % of control
T/C [15]: 106 % of control
T/C (dose: 200.0 mg/kg/injection, schedule: Q01DX Z (ip), vehicle: methylcellulose (MC)): 98 % of control

COC(=O)C1CN(S(=O)(=O)c2ccccc2)c2ccccc2N1S(=O)(=O)c1ccccc1 (stereo not drawn)
T/C [16]: 95 % of control
T/C [17]: 100 % of control
T/C (dose: 400.0 mg/kg/injection, schedule: Q04DX003 (ip), vehicle: acetone): 94 % of control

O=C1CC2CCCCN2C2=C1CCCC2 (stereo not drawn)
T/C (dose: 25.0 mg/kg/injection, schedule: Q01DX009 (ip), vehicle: alcohol): 101 % of control
T/C (dose: 50.0 mg/kg/injection, schedule: Q01DX009 (ip), vehicle: alcohol): 98 % of control
T/C (dose: 100.0 mg/kg/injection, schedule: Q01DX009 (ip), vehicle: alcohol): 93 % of control

O=[N+]([O-])c1c(Br)ncn1Cc1ccccc1
T/C [16]: 99 % of control
T/C [17]: 96 % of control

Cc1cccc(C)c1-n1c(=S)[nH]n(-c2ccccc2)c1=S
T/C [8]: 91 % of control
T/C [9]: 96 % of control
T/C [10]: 93 % of control
T/C [11]: 96 % of control
T/C [18]: 94 % of control
T/C (dose: 400.0 mg/kg/injection, schedule: Q04DX003 (ip), vehicle: saline with Tween-80): 105 % of control

O=S(=O)(CBr)/C(Br)=C/c1ccccc1
T/C (dose: 50.0 mg/kg/injection, schedule: Q04DX002 (ip), vehicle: Klucel (hydroxypropylcellulose) (HPC)): 97 % of control
T/C [4]: 94 % of control
T/C [5]: 103 % of control

O=C1C(=O)c2cccc3cccc1c23
T/C [19]: 88 % of control
T/C [8]: 90 % of control
T/C [15]: 93 % of control
T/C [10]: 89 % of control
T/C (dose: 400.0 mg/kg/injection, schedule: Q01DX001 (ip), vehicle: Klucel (hydroxypropylcellulose) (HPC)): 97 % of control
T/C [18]: 89 % of control

C#CC(C)(O)C(C)(C)C (stereo not drawn)
T/C (dose: 100.0 mg/kg/injection, schedule: Q04DX002 (ip), vehicle: saline with Tween-80): 91 % of control
T/C (dose: 200.0 mg/kg/injection, schedule: Q04DX002 (ip), vehicle: saline with Tween-80): 95 % of control
T/C (dose: 400.0 mg/kg/injection, schedule: Q04DX002 (ip), vehicle: saline with Tween-80): 87 % of control

CC12CC3CC(C)(C1)CC(N)(C3)C2
T/C (dose: 50.0 mg/kg/injection, schedule: Q01DX001 (ip), vehicle: carboxymethylcellulose (CMC)): 98 % of control

COC1(C(=O)OOC(C)(C)C)CC1(c1ccccc1)c1ccccc1 (stereo not drawn)
T/C [7]: 107 % of control
T/C [19]: 102 % of control
T/C [15]: 100 % of control

CC(C)CP(=S)(CC(C)C)CC(C)C
T/C [6]: 103 % of control
T/C (dose: 200.0 mg/kg/injection, schedule: Q01DX001 (ip), vehicle: saline with Tween-80): 103 % of control
T/C (dose: 400.0 mg/kg/injection, schedule: Q01DX001 (ip), vehicle: saline with Tween-80): 89 % of control

COc1cc2c(cc1OC)-c1c(OC)c(OC)cc3c1[C@H](C2)N(C)CC3
T/C (dose: 100.0 mg/kg/injection, schedule: Q01DX001 (ip), vehicle: carboxymethylcellulose (CMC)): 96 % of control
T/C (dose: 200.0 mg/kg/injection, schedule: Q01DX001 (ip), vehicle: carboxymethylcellulose (CMC)): 100 % of control
T/C (dose: 400.0 mg/kg/injection, schedule: Q01DX001 (ip), vehicle: carboxymethylcellulose (CMC)): 100 % of control

O=C(O)c1cccc2ccc3ccccc3c12
T/C [20]: 121 % of control
T/C [1]: 102 % of control
T/C [21]: 101 % of control
T/C [2]: 96 % of control
T/C [22]: 97 % of control
T/C [3]: 96 % of control

CCN(CC)CCNCCCS(=O)(=O)c1ccc(NC(C)=O)cc1
T/C [20]: 97 % of control
T/C [21]: 97 % of control
T/C [22]: 97 % of control

O=C(NNC(=O)c1ccc(Cl)cc1)Nc1ccc(F)c(Cl)c1
T/C (dose: 100.0 mg/kg/injection, schedule: Q01DX009 (ip), vehicle: Klucel (hydroxypropylcellulose) (HPC)): 97 % of control
T/C (dose: 200.0 mg/kg/injection, schedule: Q01DX009 (ip), vehicle: Klucel (hydroxypropylcellulose) (HPC)): 104 % of control
T/C (dose: 400.0 mg/kg/injection, schedule: Q01DX009 (ip), vehicle: Klucel (hydroxypropylcellulose) (HPC)): 100 % of control

CN(Cc1cnc2nc(N)cc(N)c2n1)c1ccc(C(=O)NC(CCC(=O)O)C(=O)O)cc1 (stereo not drawn)
T/C (dose: 0.5 mg/kg/injection, schedule: Q01DX009 (ip), vehicle: other): 102 % of control
T/C (dose: 1.0 mg/kg/injection, schedule: Q01DX009 (ip), vehicle: other): 100 % of control
T/C (dose: 2.0 mg/kg/injection, schedule: Q01DX009 (ip), vehicle: other): 112 % of control
T/C (dose: 4.0 mg/kg/injection, schedule: Q01DX009 (ip), vehicle: other): 105 % of control
T/C (dose: 8.0 mg/kg/injection, schedule: Q01DX009 (ip), vehicle: other): 117 % of control
T/C (dose: 50.0 mg/kg/injection, schedule: Q01DX009 (ip), vehicle: other): 154 % of control
T/C (dose: 100.0 mg/kg/injection, schedule: Q01DX009 (ip), vehicle: other): 164 % of control

CC(C)CC(NC(=O)CNC(=O)OCc1ccccc1)C(=O)OCc1ccccc1 (stereo not drawn)
T/C [12]: 100 % of control
T/C [13]: 108 % of control
T/C [14]: 102 % of control
